Tests used:
[1] = Cytotoxicity against ICR mouse osteoclasts by MTT assay; type: cell-based; conditions: osteoclast
Osteoclast = assay: Inhibition of RANKL-induced osteoclast differentiation in ICR mouse bone marrow after 48 hrs by TRAP assay; type: functional, cell-based

| IC50 (Osteoclast) [µM] | SMILES | Activity [1] | inhibition (Osteoclast) |
| --- | --- | --- | --- |
| 9.8 | COc1cc(/C=C/C(=O)O[C@@H]2CN(C)CC[C@@H]2c2c(O)cc(O)c3c(=O)cc(C)oc23)cc(OC)c1OC | Non-toxic | Dose-dependent effect |
| 15.1 | COc1cc(C(=O)O[C@@H]2CN(C)CC[C@@H]2c2c(O)cc(O)c3c(=O)cc(C)oc23)ccc1O | Non-toxic | Dose-dependent effect |
